Laboratory results taken from ChEMBL document CHEMBL3507680, “University of Dundee, Gates Library screen for HepG2 cell viability”.

Test: Human HepG2 cell viability assay in 384 well format
Format: toxicity, cell-based
Set-up: dose 125 nL, time 70.5 hour; concentration not given beside the values
Details: HepG2 cells, read-out: Inhibition

SMILES | cytotoxicity at 70.5 h
Cc1noc(CNC(=O)CN(C)c2nc3c(F)cccc3s2)n1 | 28.5%
Cc1noc(CNC(=O)CN(C)c2nc3c(C)ccc(C)c3s2)n1 | 12.2%
Cc1nccn1-c1ccc(=O)n(CCNC(=O)c2c(F)cccc2Cl)n1 | -6.16%
Cc1nccn1-c1ccc(=O)n(CCNC(=O)c2ccccn2)n1 | -6.46%
Cc1nccn1-c1ccc(=O)n(CCNC(=O)c2cccs2)n1 | -11.7%
COc1ccc(-n2nnc(C(N)=O)n2)cc1 | -7.17%
CN1CCCN(C(=O)c2nnn(-c3ccc(C(F)(F)F)cc3)n2)CC1 | -4.86%
CCC(C)NC(=O)c1nnn(-c2ccc(Br)cc2)n1 (stereo not drawn) | 5.21%
COCC(C)NC(=O)c1nnn(-c2ccc(Br)cc2)n1 (stereo not drawn) | 10.9%
O=C(NCC1CCCCC1)c1nnn(-c2ccc(Br)cc2)n1 | -6.14%
O=C(NCC(F)(F)F)c1ccc(-n2cccn2)nn1 | 5.82%
COc1ccccc1C(O)Cn1cc(C(=O)NCC2CC2)nn1 (stereo not drawn) | -2.27%
Cc1nnc(C2CCN(C(=O)c3ccc4nccnc4c3)CC2)s1 | -8.52%
Cn1c(C(F)(F)F)nn(CCNC(=O)Nc2ccccc2F)c1=O | -7.97%
Cn1c(C(F)(F)F)nn(CCNC(=O)Nc2ccccc2Cl)c1=O | 25.1%
CC(C)c1nnc(C2CCN(CC(=O)Nc3cccnc3)CC2)o1 | -5.94%
CN(C)S(=O)(=O)N1CCC(c2nnc(C(F)(F)F)o2)CC1 | 30.8%
Cn1nc(C2CCN(CC(=O)NC3CC3)CC2)n(-c2ccccc2)c1=O | -8.96%
O=C(Cn1cccc(S(=O)(=O)N2CCCC2)c1=O)c1ccccc1Cl | -8.77%
COC(=O)N1CCc2ccccc2C1C(=O)NCc1ccccn1 (stereo not drawn) | 0.0153%

SMILES | cytotoxicity at 70.5 h
COC(=O)N1CCc2ccccc2C1C(=O)NCc1ccco1 (stereo not drawn) | -10.1%
COC(=O)N1CCc2ccccc2C1C(=O)NCc1cccs1 (stereo not drawn) | -6.75%
COC(=O)N1CCc2ccccc2C1C(=O)NCc1ccncc1 (stereo not drawn) | -3.87%
COC(=O)N1CCc2ccccc2C1C(=O)NCc1nc(C)no1 (stereo not drawn) | -7.1%
O=C(NC1CCN(c2ccc(-c3ccccc3F)nn2)C1)c1cc[nH]n1 (stereo not drawn) | -12.8%
O=C(Cn1ccc2ccccc21)Nc1cc(N2CCCC2)ncn1 | 3.21%
CCOc1ccccc1NC(=O)Nc1cc(N2CCCC2)ncn1 | 1.9%
Cc1cc(=O)n(CCNC(=O)c2ccccc2Cl)cn1 | 4.36%
Cc1cc(=O)n(CCNS(=O)(=O)c2cccc(C(F)(F)F)c2)cn1 | -8.24%
Cc1cc(=O)n(CCNS(=O)(=O)c2ccc(F)c(Cl)c2)cn1 | -4.51%
CCc1cc(=O)n(CCNC(=O)Nc2ccc(OC(F)(F)F)cc2)cn1 | -3.46%
Cc1ncn(CCNC(=O)Nc2ccc(F)c(Cl)c2)c(=O)c1C | -3.86%
O=C(c1ccco1)N(CC(F)(F)F)C1CCOCC1 | -7.66%
O=C(C1=COCCO1)N1CC(Oc2nc3c(C(F)(F)F)cccc3s2)C1 | 10.3%
CN(C)C(CNC(=O)NCCOc1ccccc1)c1ccco1 (stereo not drawn) | 13%
COc1ccc(OC)c(-c2cc(C(=O)NCC3(CO)CC3)n(C)n2)c1 | -5.05%
NC(=O)Cc1csc(NC(=O)C2CSCCC(=O)N2)n1 (stereo not drawn) | 1.67%
O=C(O)CC(CC(=O)NCCc1cccs1)c1cccs1 (stereo not drawn) | 3.06%
O=C(O)CC(CC(=O)N(Cc1ccsc1)C1CC1)c1cccs1 (stereo not drawn) | 20.8%
Cc1ccc(S(=O)(=O)NCCc2ccoc2)s1 | -9.94%

SMILES | cytotoxicity at 70.5 h
N#Cc1cccnc1OC1CCN(S(=O)(=O)c2ccc(F)c(Cl)c2)CC1 | -14.2%
N#Cc1ccc(OC2CCN(C(=O)c3cncc(Br)c3)CC2)nc1 | -9.99%
N#Cc1ccc(OC2CCN(C(=O)Cc3cccs3)CC2)nc1 | -0.57%
O=C(CCC(=O)N1CCC(Oc2ncccc2Br)CC1)c1ccccc1 | -9.39%
Cc1cccc(OC2CCN(C(=O)Cn3ccc4ccccc43)CC2)n1 | -6.3%
Cc1cccc(OC2CCN(C(=O)c3ccc4ncsc4c3)CC2)n1 | 0.229%
O=C(Nc1cnc(Oc2ccccc2)nc1)C1CC1 | -2.39%
O=C(c1ccccc1F)N1CCN(c2ccc(-n3cccc3)nn2)CC1 | -8.46%
O=C(c1cccnc1)N1CCN(c2ccc(-n3cccc3)nn2)CC1 | 0.575%
Cc1ccc(S(=O)(=O)NCCNc2cc(-n3cccc3)ncn2)c(C)c1 | -0.584%
CC(C)c1cc(N2CCN(c3ccc(O)cc3)CC2)n2nccc2n1 | -11.5%
CCNC(=O)CCN1CCC(c2cc(N3CCOCC3)nc(C)n2)CC1 | -7.37%
COc1cccc2c1OCC(CNC(=O)CNC(N)=O)C2 (stereo not drawn) | -4.9%
COc1nc(C)c(C(=O)N(C)Cc2nc(-c3ccccn3)no2)s1 | 5.05%
O=C(c1ccccn1)N1CCCC(c2nccn2CC2CCC2)C1 (stereo not drawn) | 18.9%
CCCC(C)CN1CCC(n2cc(CCCO)nn2)CC1 (stereo not drawn) | -4.4%
CCOCCn1c(=O)[nH]c2cc(C(=O)N(C)CCc3cn[nH]c3)ccc21 | 18.1%
CC(C)n1ccnc1C1CCN(C(=O)C2COc3ccccc3O2)CC1 (stereo not drawn) | -9.98%
